Assay results: US20240091242A1, “LIPIDS THAT REDUCE LUNG DAMAGE, IMPROVE PULMONARY FUNCTION AND DECREASE PRO-INFLAMMATORY CYTOKINES” (Signpath Pharma, Inc., priority 2021, published 2024)

System: pro-inflammatory cytokines in the BALF
Assay: Multiplex analysis of cytokine levels in BALF, murine LPS ARDS model
Format: in vivo, mouse
Conditions: for IL1-alpha level in BALF / IP-10 level in BALF / MIG level in BALF: in pg/mL (unit assumed)
Excerpt: C57B16/N mice were obtained from Charles River Laboratories (Montreal, Quebec). Male mice, 20-25 g of body weight, were used throughout the studies. Animals were housed in specific pathogen[…]free conditions, and all experiments were approved by Institutional Animal Care and Use Committee (IPST_SL20200402-1). Animal studies are reported in compliance with […] guidelines.
All delivered mice were kept for one week as an acclimatization period prior to performing any experiments. Animals were housed in a maximum of two mice per cage under a 12[…]h light/12[…]h dark cycle at a temperature of ˜20-22° C. and 40-60% humidity. Food and water were available ad libitum. Each cage of mice was blindly assigned for different treatments or maintained as a control group according to the experimental design. The individual who carried out the experiments was not blinded as to treatment, but data analysis and experiments were otherwise blinded to avoid any bias.
In the ARDS group, mice received Escherichia coli O111:B4 lipopolysaccharide (50 μg in 0.05 mL saline, i.t.), while, in the control group, the animals received an instillation of saline (0.05 mL, i.t.). For intratracheal instillation, mice were slightly anesthetized with isoflurane.
The lipid SPPCT-800 was dissolved in water (low dose—2 mg/ml; high dose—20 mg/ml). For the 24-hour study, two treatment approaches were used. Mice received a single dose of SPPCT-800 (200 mg/kg, per gavage) as prevention (30 minutes before the LPS instillation), or as a single dose of either 20 mg/kg or 200 mg/kg as therapy (3-hour after the LPS instillation). For the 72-hour study, mice received a total of 8 treatments of SPPCT-800 (200 mg/kg) starting at 3-hour after the LPS instillation. Disease progression in mice was assessed by the evaluation of pulmonary functions, blood oxygen saturation, and body weight change. On the terminal day of each study (24 hours or 72 hours), measurement of cytokine levels in the plasma and BALF, and histopathology evaluations were done.
Differential Cell Counts in BALF. The left lung was clamped while 0.9 mL of cold PBS 1×, Protease Inhibitor 1× (SigmaFast®) solution (3×300 μL) was injected so bronchoalveolar lavage fluid (BALF) from the right lobe of the lungs could be collected. The protein assay was performed according to the manufacturer's instruction BCA Protein Assay (Pierce™-#23227). Briefly, a dilution factor of 5 was used (1 part of BALF: 4 part of PBS 1×). 10 μL, of the diluted sample was added into the microplate wells. 200 μL of the working reagent was added into each well. The plate was covered, incubated at 37° C. for 30 minutes. After a cool-down period, the absorbance at 562 nm was rapidly measured using a monochromatic spectrophotometer (SpectraMAX ® plus—Molecular Devices). The total BALF protein content was reported by multiplying the protein concentration by the dilution factor, and then multiplying by the total of BALF volume collected.
Multiplex analysis of mediators. The inventors quantified 31 different mediators in the BALF and plasma by using a Discovery Assay® (Mouse Cytokine and Chemokine Array 31-Plex (MD31), Eve Technologies Corp, Calgary, AB, Canada). The multiplex assay was performed at Eve Technologies using the Bio-Plex™ 200 system (Bio-Rad Laboratories, Inc., Hercules, CA, USA) and a Milliplex Mouse Cytokine/Chemokine kit (Millipore, St. Charles, MO, USA) according to Eve Tech protocol. The 31-plex consisted of Eotaxin, G-CSF, GM-CSF, IFN-γ, IL-1α, IL-1β, IL-2, IL-3, IL-4, IL-5, IL-6, IL-7, IL-9, IL-10, IL-12 (p40), IL-12 (p70), IL-13, IL-15, IL-17, IP-10, KC, LIF, MCP-1, M-CSF, MIG, MIP-1α, MIP-1β, MIP-2,RANTES, TNFα, and VEGF. The assay sensitivities of these markers range from 0.1 pg/mL to 33.3 pg/mL. Individual analytes' values and other assay details are available on Eve Technologies' website and in the Milliplex protocol.
Statistical Analysis. Results are expressed as means±SEM. […]

[1] = 24-hours, Pre: SPP4040 30 minutes before LPS
[2] = 24-hours, Thera: SPP4040 3 hours after LPS
[3] = 72-hours, Thera: eight SPP4040 injections over 72 hours after LPS

CCCCCCCCCCCCCC(=O)OCC(COP(=O)([O-])OCC(COC(=O)CCC)OC(=O)CCC)OC(=O)CCCCCCCCCCCCC.CCCCCCCCCCCCCC(=O)OCC(COP(=O)([O-])OCC(COC(=O)CCC)OC(=O)CCC)OC(=O)CCCCCCCCCCCCC.[Mg+2] (stereo not shown) [SPPCT-800]
Eotaxin level in BALF [1]: 10 ± 1 | G-CSF level in BALF [1]: 6468 ± 381 | GM-CSF level in BALF [1]: 26 ± 5 | IFN gamma level in BALF [1]: 2 ± 1 | IL1-beta level in BALF [1]: 69 ± 9 | IL2 level in BALF [1]: 1.5 ± 0.2 | IL3 level in BALF [1]: 0.4 ± 0.1 | IL4 level in BALF [1]: 0.08 ± 0.01 | IL5 level in BALF [1]: 10 ± 3 | IL6 level in BALF [1]: 856 ± 188 | IL7 level in BALF [1]: 1.7 ± 0.3 | IL9 level in BALF [1]: 7.0 ± 0.3 | IL10 level in BALF [1]: 1.4 ± 0.3 | IL12 (p40) level in BALF [1]: 1.6 ± 0.3 | IL12 (p70) level in BALF [1]: 7.4 ± 1.0 | IL13 level in BALF [1]: 0.7 ± 0.1 | IL15 level in BALF [1]: 5.1 ± 0.8 | IL17 level in BALF [1]: 8.3 ± 3.2 | KC level in BALF [1]: 622 ± 89 | LIF level in BALF [1]: 38 ± 8 | LIX level in BALF [1]: 94 ± 6 | M-CSF level in BALF [1]: 21 ± 3 | MCP-1 level in BALF [1]: 462 ± 103 | MIP-1alpha level in BALF [1]: 323 ± 52 | MIP-1beta level in BALF [1]: 801 ± 208 | MIP-2 level in BALF [1]: 771 ± 107 | RANTES level in BALF [1]: 45 ± 6 | TNF-alpha level in BALF [1]: 91 ± 32 | VEGF level in BALF [1]: 33 ± 2 | IL1-alpha level in BALF [1]: 183 ± 25 | IP-10 level in BALF [1]: 125 ± 10 | MIG level in BALF [1]: 6.8 ± 1.5 | Eotaxin level in BALF [2]: 14 ± 3 | G-CSF level in BALF [2]: 7060 ± 853 | GM-CSF level in BALF [2]: 46 ± 9 | IFN gamma level in BALF [2]: 3 ± 1 | IL1-beta level in BALF [2]: 103 ± 18 | IL2 level in BALF [2]: 1.5 ± 0.3 | IL3 level in BALF [2]: 0.5 ± 0.1 | IL4 level in BALF [2]: 0.10 ± 0.01 | IL5 level in BALF [2]: 10 ± 2 | IL6 level in BALF [2]: 850 ± 212 | IL7 level in BALF [2]: 1.7 ± 0.2 | IL9 level in BALF [2]: 8.8 ± 1.3 | IL10 level in BALF [2]: 1.4 ± 0.3 | IL12 (p40) level in BALF [2]: 2.0 ± 0.3 | IL12 (p70) level in BALF [2]: 6.0 ± 1.0 | IL13 level in BALF [2]: 1.1 ± 0.2 | IL15 level in BALF [2]: 3.1 ± 0.7 | IL17 level in BALF [2]: 13.6 ± 5.6 | KC level in BALF [2]: 1017 ± 140 | LIF level in BALF [2]: 39 ± 12 | LIX level in BALF [2]: 67 ± 20 | M-CSF level in BALF [2]: 27 ± 6 | MCP-1 level in BALF [2]: 494 ± 103 | MIP-1alpha level in BALF [2]: 564 ± 132 | MIP-1beta level in BALF [2]: 1924 ± 812 | MIP-2 level in BALF [2]: 1054 ± 106 | RANTES level in BALF [2]: 46 ± 6 | TNF-alpha level in BALF [2]: 153 ± 32 | VEGF level in BALF [2]: 34 ± 2 | IL1-alpha level in BALF [2]: 331 ± 67 | IP-10 level in BALF [2]: 163 ± 33 | MIG level in BALF [2]: 6.6 ± 2.0 | TNF-α levels in the BALF (in words) (72-hour study, p=0.0613): markedly reduced | Eotaxin level in BALF [3]: 6 ± 2 | G-CSF level in BALF [3]: 1233 ± 572 | GM-CSF level in BALF [3]: 9 ± 1 | IFN gamma level in BALF [3]: 12 ± 1 | IL1-beta level in BALF [3]: 89 ± 24 | IL2 level in BALF [3]: 1.7 ± 0.4 | IL3 level in BALF [3]: 0.5 ± 0.2 | IL4 level in BALF [3]: 0.24 ± 0.05 | IL5 level in BALF [3]: 0.4 ± 0.1 | IL6 level in BALF [3]: 276 ± 151 | IL7 level in BALF [3]: 2.0 ± 0.5 | IL9 level in BALF [3]: 8.5 ± 1.6 | IL10 level in BALF [3]: 1.1 ± 0.5 | IL12 (p40) level in BALF [3]: 6.0 ± 1.2 | IL12 (p70) level in BALF [3]: 15.7 ± 3.9 | IL13 level in BALF [3]: 1.1 ± 0.2 | IL15 level in BALF [3]: 4.8 ± 2.6 | IL17 level in BALF [3]: 53.2 ± 26.9 | KC level in BALF [3]: 216 ± 15 | LIF level in BALF [3]: 11 ± 7 | LIX level in BALF [3]: 25 ± 18 | M-CSF level in BALF [3]: 11 ± 1 | MCP-1 level in BALF [3]: 84 ± 34 | MIP-1alpha level in BALF [3]: 1676 ± 554 | MIP-1beta level in BALF [3]: 1561 ± 440 | MIP-2 level in BALF [3]: 2649 ± 898 | RANTES level in BALF [3]: 57 ± 20 | TNF-alpha level in BALF [3]: 62 ± 17 | VEGF level in BALF [3]: 11 ± 3 | IL1-alpha level in BALF [3]: 576 ± 169 | IP-10 level in BALF [3]: 1583 ± 385 | MIG level in BALF [3]: 749.7 ± 186.7 | MIP-1α and MIP 1-β in the BALF (in words) (at 24 hours): Suppressive effects | GM-CSF in the BALF (in words) (at 24 hours, 200 mg/kg preventive, 20 mg/kg therapeutic and 200 mg/kg therapeutic, P<0.001): highly significant depressions | IFN-γ levels in the BALF (in words) (at 24 hours, P<0.001): profoundly depressed | TNF-α in the BALF (in words) (at 24 hours, P=0.0959): markedly reduced | IL-1β, IL-2, IL-3, IL-4, IL-5, IL-7, IL-9, IL-10, IL-12 (p40), IL-12 (p70), IL-13 and IL-15 in the BALF (in words) (at 24 hours, with the exception of IL-6): major reductions | IFN-γ levels in the BALF (in words) (at 72 hours): Large reductions | MCP-1 in the BALF (in words) (at 72 hours): inhibited | GM-CSF in the BALF (in words) (at 72 hours, P<0.001): significant decreases | G-CSF, VEGF, KC, LIF, LIX and M-CSF in the BALF (in words) (mouse, in vivo): suppressed
